Key:
[1] = test system: normal human keratinocytes; experiment: Stimulation of synthesis and secretion of PG and GAG by keratinocytes (radioactive tracer incorporation); assay type: cell-based; conditions: for GAG secreted / A, stimulating activity on the secretion of GAG: 48 h; for A, stimulating activity on the secretion of GAG: versus untreated control
Protocol: These tracers enable the amount of PG and GAG to be measured.
There are two families of GAG which differ in their sugar chains. One is based on a sequence of glucosamines and the other is based on a sequence of galactosamines. It is for this reason that two different radioactive tracers were used, namely ^3H-D-glucosamine and ^14C-D-galactosamine, which become incorporated in the osidic chains of PG and GAG during their synthesis.
The cells are incubated for 24 h at 37° C. in a humidity-saturated atmosphere containing 5% of CO2.
(§1) The cultures are then incubated for 48 h at 37° C. in a humidity-saturated atmosphere containing 5% of CO2.
The enzyme is then inactivated by heating for 10 min in boiling water, after which the mixture is brought back to room temperature. A selective precipitation of the GAG is effected with 40 μl of cetylpyridinium chloride (CPC at 100 mg/ml, Sigma) in the presence of 40 μl of a mixture of hyaluronic acid (Fluka), dermatan sulfate (Fluka) and chondroitin sulfate (Sigma), all at 2 mg/ml (amounting to the addition of a solution containing 6 mg/ml of non-radioactive GAG). These non-radioactive GAG are added to trigger the precipitation and entrain the radioactive GAG (which on their own would not be in a sufficient amount to precipitate) into the precipitate. The precipitate obtained is washed twice with 400 μl of a solution of CPC at 10 mg/ml, and then solubilized in 500 μl of methanol (Merck). The radioactivity is finally measured by liquid scintillation with 10 ml of scintillating liquid (Packard).
It should be noted when processing the results that the GAG whose synthesis has been measured have two origins. They originate both from the synthesized and secreted GAG and from the synthesized and secreted PG (which have undergone hydrolysis with pronase for the purposes of the assay).
In order to reduce the radioactivity to a unit amount of cellular material, the cellular proteins are assayed. After removal of the culture medium and two rinses with a phosphate buffer of pH 7.2 (PBS, Gibco), the cellular tapetum in the culture wells is dissolved in 30 μl of 0.1 M NaOH at 37° C. and the plates are agitated for 30 min at 37° C. 200 μl of bicinchoninic acid/Cu^++ sulfate reagent (Sigma kit) are added to each well. The plates are incubated for 30 min at 37° C. in the dark and the proteins which it is desired to assay reduce the cupric ions (Cu^++) of the copper sulfate to cuprous ions (Cu^+). The latter and the bicinchoninic acid form chromogenic complexes absorbing at 570 nm, which is the wavelength used to measure the optical density. In parallel, a calibration series is prepared under the same experimental conditions with 0 to 100 μg/well of bovine serum albumin (BSA, Sigma) in order to translate the optical densities (OD) obtained with the cellular proteins into Stg of BSA equivalent per well.
The amounts of GAG measured will be reduced to a unit amount of protein (expressed in jig of BSA equivalent).
The stimulating activity “A” on the secretion of GAG is calculated in the form of a percentage according to the following formula: [formula]

[2] = test system: normal human keratinocytes; experiment: Cytotoxicity / cell viability in keratinocyte cultures; assay type: cell-based; conditions: concentrations of 1.5 and 10 mM
Protocol: as §1

[3] = D-xylose 1 mM, tracer 3H-D-glucosamine
[4] = D-xylose 1 mM, tracer 14C-D-galactosamine
[5] = D-xylose 5 mM, tracer 3H-D-glucosamine
[6] = D-xylose 10 mM, tracer 3H-D-glucosamine
[7] = D-xylose 10 mM, tracer 14C-D-galactosamine

O=C[C@H](O)[C@@H](O)[C@H](O)CO [D-xylose]
GAG secreted [1, 3]: 2148 ± 160 dpm/μg protein | A, stimulating activity on the secretion of GAG [1, 3]: 55% | GAG secreted [1, 4]: 136 ± 12 dpm/μg protein | A, stimulating activity on the secretion of GAG [1, 4]: 34% | GAG secreted [1, 5]: 2661 ± 202 dpm/μg protein | A, stimulating activity on the secretion of GAG [1, 5]: 92% | A, stimulating activity on the secretion of GAG ([1]; D-xylose 5 mM, tracer 14C-D-galactosamine): 105% | GAG secreted [1, 6]: 2950 ± 262 dpm/μg protein | A, stimulating activity on the secretion of GAG [1, 6]: 113% | GAG secreted [1, 7]: 250 ± 28 dpm/μg protein | A, stimulating activity on the secretion of GAG [1, 7]: 145% | synthesis and extracellular secretion of PG and GAG by the keratinocytes of the human epidermis ([1]; irrespective of the radioactive tracer used): very strongly stimulates | cytotoxicity [2]: non-cytotoxic

From patent publication US6495147B1 (LVMH Recherche, priority 1997, dated 2002)
